From ChEMBL document CHEMBL1146692, “Highly potent PDE4 inhibitors with therapeutic potential” (Bioorg Med Chem Lett, 2004)
pIC50: −log10 of the molar value.

Key:
Phosphodiesterase 4 = Phosphodiesterase 4 (Homo sapiens, UniProt P27815+Q08499+Q07343+Q08493); experiment: Inhibition of phosphodiesterase 4 (PDE4) prepared from human U937 cells; type: cell-based; conditions: u-937
Rattus norvegicus [1] = experiment: Inhibition of LPS-induced TNF-alpha production in rats 0.5 hr after peroral administration; type: functional; conditions: po, read-out: ID50 (the source's name)
Rattus norvegicus [2] = experiment: Inhibition of LPS-induced TNF-alpha production in rats at 1 mg/kg peroral dose after 0.5 hr; type: functional; conditions: route oral
Rattus norvegicus [3] = experiment: Inhibition of LPS-induced TNF-alpha production in rats at 3 mg/kg peroral dose after 0.5 hr; type: functional; conditions: route oral
Cavia porcellus [4] = experiment: Inhibition of SRS-A-mediated bronchoconstriction and airway microvascular leakage in sensitized guinea pigs at 0.5 mg/kg 1 hr after oral dose; type: functional; conditions: Lung, read-out: ID50 (the source's name)
Homo sapiens = species on record: Homo sapiens; experiment: Inhibition of LPS-induced TNF-alpha production in human whole blood; type: functional, organism-based
Rattus norvegicus [5] = experiment: Inhibition of gastric emptying in rats after peroral administration; type: functional; conditions: Stomach, po, read-out: ID50 (the source's name)
Cavia porcellus [6] = experiment: Inhibition of SRS-A-mediated bronchoconstriction and airway microvascular leakage in sensitized guinea pigs at 0.15 mg/kg 1 hr after oral dose; type: functional; conditions: Lung, read-out: ID50 (the source's name)

Structure (SMILES) | IC50 (Phosphodiesterase 4) [nM] | ED50 (Rattus norvegicus [1]) [mg/kg] | further results
CCOc1ccc(C2(C#N)CCN(CC(=O)NO)CC2)cc1OC1CCCC1 | 6.2 | 0.7 | –
CC(C)Oc1ccc(C2(C#N)CCN(CC(=O)NO)CC2)cc1OC1CCCC1 | > 30 | – | –
CCOc1cc(C2(C#N)CCN(CC(=O)O)CC2)ccc1OC | > 100 | – | inhibition in vivo at 1 mg/kg (Rattus norvegicus [2]): 0%
COc1ccc(C2(C#N)CCN([C@H](C)C(=O)O)CC2)cc1OC1CCCC1 | > 300 | – | –
COc1ccc(C2(C#N)CCN(CC(=O)O)CC2)cc1OCC1CC1 | > 100 | – | inhibition in vivo at 1 mg/kg (Rattus norvegicus [2]): 12%
COc1ccc(C2(C#N)CCN(CC(=O)NO)CC2)cc1OC | 4.7 | 0.23 | –
COc1ccc(C2(C#N)CCN(CC(=O)NO)CC2)cc1OC1CCC1 | 0.18 | 0.03 | –
COc1ccc(C2(C#N)CCN(C(C)(C)C(=O)NO)CC2)cc1OC1CCCC1 | 34 | – | –
COc1ccc(C2(C#N)CCN(C3(C(=O)NO)CC3)CC2)cc1OC1CCCC1 | 4.6 | 2 | –
COc1ccc(C2(C#N)CCN(CC(=O)O)CC2)cc1OC(C)C | > 100 | – | –
COc1ccc(C2(C#N)CCN([C@@H](C)C(=O)NO)CC2)cc1OC1CCCC1 | 5.9 | – | inhibition in vivo at 3 mg/kg (Rattus norvegicus [3]): 49%
COc1ccc(C2(C#N)CCN([C@H](C)C(=O)NO)CC2)cc1OC1CCCC1 | 0.91 | – | inhibition in vivo at 3 mg/kg (Rattus norvegicus [3]): 26%
N#CC1(c2ccc(OC(F)F)c(OC3CCCC3)c2)CCN(CC(=O)O)CC1 | 65 | 1.1 | ED50 (Cavia porcellus [4]): 4.2 mg/kg; pIC50 (Homo sapiens): 6.08; ED50 (Rattus norvegicus [5]): 4.7 mg/kg
N#CC1(c2ccc(OC(F)F)c(OC3CCCC3)c2)CCN(CC(=O)NO)CC1 | 0.051 | 0.02 | –
COc1ccc(C2(C#N)CCN(CC(=O)O)CC2)cc1OC1Cc2ccccc2C1 | 67 | – | inhibition in vivo at 3 mg/kg (Rattus norvegicus [3]): 29%
COc1ccc(C2(C#N)CCN([C@@H](C)C(=O)O)CC2)cc1OC1CCCC1 | > 300 | – | –
COc1ccc(C2(C#N)CCN(CC(=O)O)CC2)cc1OC | > 100 | – | –
COc1ccc([C@]2(C#N)CC[C@@H](C(=O)O)CC2)cc1OC1CCCC1 [CILOMILAST] | – | 1.7 | ED50 (Cavia porcellus [6]): 4.5 mg/kg; ED50 (Rattus norvegicus [5]): 5.7 mg/kg
CC(C)Oc1ccc(C2(C#N)CCN(CC(=O)O)CC2)cc1OC1CCCC1 | > 1000 | – | –
COc1ccc(C2(C#N)CCN(CC(=O)NO)CC2)cc1OC(C)C | 1 | 0.09 | –
CCOc1ccc(C2(C#N)CCN(CC(=O)O)CC2)cc1OC1CCCC1 | 2500 | – | –
COc1ccc(C2(C#N)CCN(CC(=O)O)CC2)cc1OC1CCC1 | > 100 | – | –
COc1ccc(C2(C#N)CCN(C(C)(C)C(=O)O)CC2)cc1OC1CCCC1 | > 1000 | – | –
COc1ccc(C2(C#N)CCN(CC(=O)NO)CC2)cc1OC1CCCC1 | 0.08 | 0.04 | ED50 (Cavia porcellus [6]): 0.3 mg/kg; pIC50 (Homo sapiens): 8.05; ED50 (Rattus norvegicus [5]): 0.3 mg/kg
COc1ccc(C2(C#N)CCN(CC(=O)NO)CC2)cc1OCC1CC1 | 0.29 | 0.03 | ED50 (Cavia porcellus [6]): 0.3 mg/kg; pIC50 (Homo sapiens): 8.68; ED50 (Rattus norvegicus [5]): 0.3 mg/kg
COc1ccc(C2(C#N)CCN(C3(C(=O)O)CC3)CC2)cc1OC1CCCC1 | > 1000 | – | –
COc1ccc(C2(C#N)CCN(CC(=O)O)CC2)cc1OC1CCCC1 | 66 | – | inhibition in vivo at 3 mg/kg (Rattus norvegicus [3]): 74%
CCOc1cc(C2(C#N)CCN(CC(=O)NO)CC2)ccc1OC | 0.52 | 0.04 | ED50 (Cavia porcellus [6]): 0.04 mg/kg; pIC50 (Homo sapiens): 8.30; ED50 (Rattus norvegicus [5]): 0.7 mg/kg
